Assay [1] is described as follows: Dependence of […]s on Mg2+ and ATP (fluorescence intensity). Format: biochemical. As to conditions: Mg+ +. The text has this: Ligand specificity is an important biosensors feature. Generally, the NRPS A domains have high specificity for their substrates because they are the first “gatekeeper” of NRPSs and ensure that the correct monomers are activated and thioesterified[32],[33]. […] Twenty proteinogenic amino acids were used to test the ligand specificity of […]s. […] We also investigated the dependence of […]s on Mg^2+ and ATP (Supplementary Fig. 4).
Supplementary Fig. 4 Dependence of GEC FINDER s on Mg2+ and ATP . a-j, Fluore scence intensities of
GECF IN DERs in the absence of any substra te, in the pre sence of Mg2+ alone, ATP alone, both Mg2+ and ATP, Mg2+
and ATP with re spective substra tes. Mg2+ concentra tion was 2.5 mM, and ATP concentra tion was 1 mM. a, 100 μM
data are provided as a Source Data file.

The nature of assay [2]: Substrate (ligand) specificity of […]s. In kind it is biochemical. To be noted: for fluorescence response of GECFINDER to each substrate, AVE of 3 repeats: Supplementary Fig. 3 c, substrate specificity; for AVE of Repeat 1-3, sensor signal with ligand (Supplementary Fig. 7 c): 1 mM ligand, Control AVE 12117.3. The procedure: Fig. 4 Engineering ligand specificity of GrsA-PheA for generating […]s. a The selectivity-conferring code of Phe and Leu A domains. b–f Dose–response curve of purified […]s with increasing concentrations of ligands in 100 mM Tris-HCl buffer (pH=7.5). All data shown are means ± S.D. (n = 3 biologically independent samples). g A series of […] reactions was tested to show the […]’s specificity with 20 proteinogenic amino acids. The values on the heatmap represent the ΔF/F0 value normalized to each […]’s maximal ΔF/F0 value ((ΔF/F0)/maximal ΔF/F0). The concentrations of 20 amino acids were 100 μM. The color indicates the average value of three independent biological replicates after 15 min. All data shown are means ± S.D. (n = 3 biologically independent samples). Source data are provided as a Source data file.
Ligand specificity is an important biosensors feature. Generally, the NRPS A domains have high specificity for their substrates because they are the first “gatekeeper” of NRPSs and ensure that the correct monomers are activated and thioesterified[32],[33]. Therefore, we speculated that this property would be inherited by our […]s because the ligand-binding pockets were unchanged during the […] creation process. Twenty proteinogenic amino acids were used to test the ligand specificity of […]s. […] We also investigated the dependence of […]s on Mg^2+ and ATP (Supplementary Fig. 4). […] This phenomenon corroborates with the distinct conformational changes observed in Hinge A of Nt4CL2 (Mg^2++ATP) (PDB ID: 5BSM) and Nt4CL2 (Coumaroyl-AMP) (PDB ID: 5BST) reported in the literature (Supplementary Fig. 4k), where the direction of motion in hinge A differs. […] During the determination of quantum yield, we observed that the absolute quantum yield of the […] variants ranged from 0.3 to 0.6 upon addition of the respective substrates, which show no significant difference with that reported in literature. The specific values are provided in Supplementary Table 2.
The study conducted dose–response curve, substrate specificity, and fluorescent spectrum analyses in 100-mM Tris buffer (pH = 7.5), while pH stability experiments were performed in 100-mM Tris buffer at three different pH values (6.5, 7.5, and 8.5) at room temperature. […] protein at a concentration of 0.75 μM, various small molecule concentrations, 1 mM ATP, and 2.5 mM MgCl2 were used in the experiments. Fluorescent signals were detected using a Microplate Reader (Synergy H4, Bio Tek) at an excitation/emission wavelength of 460 nm/510 nm or 480 nm/510 nm. The dose-response curve was determined immediately after the addition of the analyte. The total duration of the measurement was 15 min, with readings taken at one-minute intervals. The dose-response curve was plotted using the fluorescence values obtained after achieving stability in the fluorescence signal. The dose-response curves were fitted using the logistic model LOGISTIC5 available in Origin 2021, which could provide a more adequate fit to asymmetric dose-response data[62],[63]. Excitation spectra were scanned from 300 to 540 nm with a step size of 5 nm, and the emission wavelength was set to 560 nm. Emission spectra were scanned from 470 to 700 nm with a step size of 5 nm, and the excitation wavelength was set to 450 nm. The thermal stability of […] was analyzed using the UNcle multifunctional protein stability analysis system. Measurements were performed in 20 mM MOPS buffer with 2 mM DTT at a sample concentration of 1 mg/mL. Absolute fluorescence quantum yields were measured using an absolute photoluminescence quantum yield spectrometer (FS5, Edinburgh).

With `CC[C@H](C)[C@H](N)C(=O)O` [isoleucine], the “fluorescence intensity, AVE of 3 repeats” value in assay [1] (Supplementary Fig. 4 e, ATP +, isoleucine +) is recorded as 15546.

Turning to `N[C@@H](CC(=O)O)c1ccccc1` [S-β-phenylalanine], the “fluorescence intensity, AVE of 3 repeats” value in assay [1] (Supplementary Fig. 4 h, ATP +, S-β-phenylalanine +) worked out at 22066.

Regarding `N[C@@H](CS)C(=O)O` [Cys], the “fluorescence response of GECFINDER to each substrate, AVE of 3 repeats” value (shortened to “fluorescence response of GECFINDER”) in assay [2] is listed as -0.0008412.

On to `NC(=O)C[C@H](N)C(=O)O` [Asn], for which, in assay [2], the “fluorescence response of GECFINDER” value came out at 0.01237.

Turning to `N[C@@H](CO)C(=O)O` [Ser], the “fluorescence response of GECFINDER” value in assay [2] is -0.004319.

In the case of `NC(=O)CC[C@H](N)C(=O)O` [Gln], the “fluorescence response of GECFINDER” value in assay [2] was 0.009843.

For `N[C@@H](CC(=O)O)C(=O)O` [Asp], the “fluorescence response of GECFINDER” value in assay [2] was 0.02069.

On to `CC(C)[C@H](N)C(=O)O` [Val], for which the “fluorescence response of GECFINDER” value in assay [2] is listed as -0.02124.

On to `[Mg+2]` [Mg+], for which the “fluorescence intensity, AVE of 3 repeats” value in assay [1] (Supplementary Fig. 4 a, ATP -, 4-coumaric acid -) is listed as 2849; in assay [1] (Supplementary Fig. 4 b, ATP -, phenylalanine -) it was 6591; in assay [1] (Supplementary Fig. 4 c, ATP -, glutamine -), 17660; in assay [1] (Supplementary Fig. 4 e, ATP -, isoleucine -), 12580; in assay [1] (Supplementary Fig. 4 f, ATP -, histidine -) it was 26018; in assay [1] (Supplementary Fig. 4 g, ATP -, leucine -), 6350.33. Besides, the “fluorescence intensity, AVE of 3 repeats” value is given as 5977 in assay [1] (Supplementary Fig. 4 i, ATP -, tyrosine -); 7671.67 in assay [1] (Supplementary Fig. 4 j, ATP -, phenylalanine -); 5046.33 in assay [1] (Supplementary Fig. 4 h, ATP -, S-β-phenylalanine -); 43559.3 in assay [1] (Supplementary Fig. 4 d, ATP -, proline -).

Take `N[C@@H](Cc1c[nH]c2ccccc12)C(=O)O` [Trp]: in assay [2], the “AVE of Repeat 1-3, sensor signal with ligand (Supplementary Fig. 7 c)” value amounted to 11938.7 and the “fluorescence response of GECFINDER” value is listed as -0.01712.

Turning to `C[C@H](N)C(=O)O` [Ala], the “fluorescence response of GECFINDER” value in assay [2] came to 0.02842.

On to `N[C@@H](Cc1c[nH]cn1)C(=O)O` [histidine], for which, in assay [1] (Supplementary Fig. 4 f, ATP +, histidine +), the “fluorescence intensity, AVE of 3 repeats” value is given as 33756.

Turning to `N=C(N)NCCC[C@H](N)C(=O)O` [Arg], in assay [2], the “fluorescence response of GECFINDER” value was 0.01953.

In the case of `N[C@@H](Cc1ccc(O)cc1)C(=O)O` [tyrosine], the “fluorescence intensity, AVE of 3 repeats” value in assay [1] (Supplementary Fig. 4 i, ATP +, tyrosine +) was 9237.33.

`CSCC[C@H](N)C(=O)O` [Met]: in assay [2], the “AVE of Repeat 1-3, sensor signal with ligand (Supplementary Fig. 7 c)” value was 12345.3 and the “fluorescence response of GECFINDER” value came to 0.1232.

Turning to `N[C@@H](Cc1ccccc1)C(=O)O` [phenylalanine], the “fluorescence intensity, AVE of 3 repeats” value in assay [1] (Supplementary Fig. 4 b, ATP +, phenylalanine +) is 39284.7; in assay [1] (Supplementary Fig. 4 j, ATP +, phenylalanine +) it was 31788.

As for `C[C@@H](O)[C@H](N)C(=O)O` [Thr], the “fluorescence response of GECFINDER” value in assay [2] is reported as -0.00888.

Regarding `O=C(O)[C@@H]1CCCN1` [proline], the “fluorescence intensity, AVE of 3 repeats” value in assay [1] (Supplementary Fig. 4 d, ATP +, proline +) was 54621.3.

With `NCCCC[C@H](N)C(=O)O` [Lys], the “fluorescence response of GECFINDER” value in assay [2] was -0.005837.

As to `NCC(=O)O` [Gly], the “fluorescence response of GECFINDER” value in assay [2] is reported as 0.007359.

Values taken from publication PMC10590383, “Repurposing conformational changes in ANL superfamily enzymes to rapidly generate biosensors for organic and amino acids” (Nature Communications, 2023).
